Where two headings read alike, the source gives them in different places.
Columns and labels:
Test in all cases: CRE-luciferase assay of odorant receptor activation (Dual-Glo, Hana3A cells, RTP1S), dose-response EC50
Type in all cases: cell-based
[1] = system: mouse odorant receptors (ORs); details: for log EC50 (Table 4 value), MOR271-1 / log EC50, MOR271-1: receptor MOR271-1
Source text: (§1) Cloning mouse and human ORs. […] OR open reading frames were amplified from genomic DNA using proofreading KOD DNA polymerase (Toyobo/Novagen) and subcloned into pCI expression vectors (Promega) containing the first 20 residues of human rhodopsin (Rho tag). The sequences of the cloned receptors were verified by sequencing (3100 Genetic Analyzer, ABI Biosystems). Immunocytochemistry and FACS analysis. […] For FACS analysis, phycoerythrin (PE)-conjugated anti-mouse IgG (Jackson Immunologicals) was used. In order to monitor the transfection efficiency, Green Fluorescent Protein (GFP) was co-transfected with the OR. The intensity of receptor cell surface expression was calculated as the ratio of PE and GFP expression. 7-aminoactinomycin D (Calbiochem) was added before flow cytometry to mark dead cells which were excluded from the analysis. The gate and mean of PE positive cells was normalized by GFP values. Luciferase assay. […] Odorant receptor activation leads to an increase in intracellular cAMP; CRE-luciferase (Stratagene) was used to measure this change. […] Hana3A cells were plated on poly-D-lysine-coated 96-well plates (BioCoat; Becton Dickinson). […] For each 96-well plate transfected, 1 μg of CRE-Luc, 1 μg of pRL-SV40, 5 μg of odorant receptor plasmid, and 1 μg of RTP1S was used. Approximately 24 hours post transfection, the medium was replaced with CD293 chemically defined medium (Gibco) and the plate was incubed for 30 min at 37° C. The medium was then replaced with 25 μL of odorant solution diluted in CD293 and the plate was incubated for 4 hrs at 37° C. and 5% CO2. The manufacturer's protocols for measuring luciferase and Renilla luciferase activities was followed. […] All luminescence values were divided by the Renilla Luciferase activity to control for transfection efficiency in a given well. Normalized luciferase activity was calculated using the formula (LN−Lmin)/(Lmax−Lmin), where LN is the luminescence of firefly luciferase in response to the odorant, Lmin is the minimum luciferase value on a plate or set of plates, and Lmax is the maximum luciferase value on a plate or set of plates. The data was analyzed using Microsoft Excel and GraphPad Prism 4. Screening procedure. The entire OR library was stimulated with eight separate odorant mixtures formed from 93 odorants (FIG. 12). […] A comparison between the 93 individual odorants at a 100 μM dose and a no-odor control was performed for all 290 […]. Each comparison was performed in triplicate; statistical significance was assessed by t-test (uncorrected for multiple comparisons). […] A single odorant was used on each plate to avoid cross-contamination, and each OR odorant dose was tested at least three times. The data was fit to a sigmoidal curve. […] Physicochemical descriptors. […] Receptor descriptors. […] Correlations between descriptors and responses. […] All odorants for which there were fewer than 3 responsive receptors were eliminated. For all remaining odorant pairs the Pearson correlation between EC50 vectors and the Euclidean distance between descriptor vectors was calculated. The Pearson correlation between these two sets of distances was then measured. Optimizing descriptors. […] In this method one begins with an empty set of descriptors. Each descriptor is combined with the previous set of descriptors and correlation values are computed for all of these candidate sets of descriptors. To reduce overfitting, the data is randomly divided into ten subsets and correlation values are computed for each leave-one out subset. The final correlation coefficient for each set of descriptors is the average of the correlation coefficients for each subset. The set with the best correlation coefficient then becomes the new set of descriptors and the process is repeated until the correlation coefficient increases by less than 0.004 in three consecutive iterations.

[2] = target: T1, mouse odorant receptors (ORs) (Mus musculus, UniProt P23275)
T1 construct: OR open reading frames were amplified from genomic DNA; expressed in transfected cells; host or cells: Hana3A cells, co-transfected with RTP1S, CRE-luciferase and pRL-SV40
T1 sequence (P23275 1-312): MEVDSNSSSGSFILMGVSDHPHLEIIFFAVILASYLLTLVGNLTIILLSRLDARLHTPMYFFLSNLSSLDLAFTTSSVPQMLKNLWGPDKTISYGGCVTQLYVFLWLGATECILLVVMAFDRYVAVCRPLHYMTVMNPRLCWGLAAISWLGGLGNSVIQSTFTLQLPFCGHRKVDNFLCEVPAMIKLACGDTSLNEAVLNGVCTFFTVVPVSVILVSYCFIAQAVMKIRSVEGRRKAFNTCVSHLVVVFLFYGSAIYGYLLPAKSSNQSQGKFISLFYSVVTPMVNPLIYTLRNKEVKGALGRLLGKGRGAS
Source text: as §1

[3] = target: T2, human odorant receptors (ORs) (Homo sapiens, UniProt Q9Y3N9)
T2 construct: OR open reading frames were amplified from genomic DNA; expressed in transfected cells; host or cells: Hana3A cells, co-transfected with RTP1S, CRE-luciferase and pRL-SV40
T2 sequence (Q9Y3N9 1-320): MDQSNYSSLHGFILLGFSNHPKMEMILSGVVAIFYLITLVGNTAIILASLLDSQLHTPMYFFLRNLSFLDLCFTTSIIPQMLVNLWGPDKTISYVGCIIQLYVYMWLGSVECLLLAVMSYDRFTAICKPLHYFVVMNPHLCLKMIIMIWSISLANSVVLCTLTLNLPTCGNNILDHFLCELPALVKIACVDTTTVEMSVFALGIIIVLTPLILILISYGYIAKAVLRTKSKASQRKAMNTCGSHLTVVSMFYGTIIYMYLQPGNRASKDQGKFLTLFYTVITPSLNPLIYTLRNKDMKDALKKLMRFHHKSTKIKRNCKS
Source text: as §1, with “For all remaining odorant pairs the Pearson correlation between EC50 vectors and the Euclidean distance between descriptor vectors was calculated.” left out, “subset.” for “subset. The set with the best correlation coefficient then becomes the new set of descriptors and the process is repeated until the correlation coefficient increases by less than 0.004 in three consecutive iterations.”
(§2) The entire OR library was stimulated with one of 8 odorant mixtures drawn from 93 odorants chosen to represent diverse functional groups, sizes, and structures (Table 3). Each mixture was applied at five different concentrations. […] The 93 odorants were then applied individually at 100 μM to the 290 mixture-responsive ORs.

[4] = target: T3, human odorant receptors (ORs) (Homo sapiens, UniProt Q9P1Q5)
T3 construct: OR open reading frames were amplified from genomic DNA; expressed in transfected cells; host or cells: Hana3A cells, co-transfected with RTP1S, CRE-luciferase and pRL-SV40
T3 sequence (Q9P1Q5 1-309): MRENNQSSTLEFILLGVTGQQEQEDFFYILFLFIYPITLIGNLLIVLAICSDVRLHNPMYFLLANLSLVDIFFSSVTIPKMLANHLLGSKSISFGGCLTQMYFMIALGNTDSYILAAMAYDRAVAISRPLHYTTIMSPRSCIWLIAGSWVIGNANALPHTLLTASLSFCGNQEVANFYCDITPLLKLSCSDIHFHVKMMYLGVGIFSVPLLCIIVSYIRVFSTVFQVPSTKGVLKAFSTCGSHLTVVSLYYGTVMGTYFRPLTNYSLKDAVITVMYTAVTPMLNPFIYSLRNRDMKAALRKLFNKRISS
Source text: as §1, with “For all remaining odorant pairs the Pearson correlation between EC50 vectors and the Euclidean distance between descriptor vectors was calculated.” left out, “subset.” for “subset. The set with the best correlation coefficient then becomes the new set of descriptors and the process is repeated until the correlation coefficient increases by less than 0.004 in three consecutive iterations.”
as §2

[5] = target: T4, human odorant receptors (ORs) (Homo sapiens, UniProt Q8WZ94); details: receptor OR5P3; 0 = no response; read-out: log EC50, OR5P3 (converted)
T4 construct: OR open reading frames were amplified from genomic DNA; expressed in transfected cells; host or cells: Hana3A cells, co-transfected with RTP1S, CRE-luciferase and pRL-SV40
T4 sequence (Q8WZ94 1-311): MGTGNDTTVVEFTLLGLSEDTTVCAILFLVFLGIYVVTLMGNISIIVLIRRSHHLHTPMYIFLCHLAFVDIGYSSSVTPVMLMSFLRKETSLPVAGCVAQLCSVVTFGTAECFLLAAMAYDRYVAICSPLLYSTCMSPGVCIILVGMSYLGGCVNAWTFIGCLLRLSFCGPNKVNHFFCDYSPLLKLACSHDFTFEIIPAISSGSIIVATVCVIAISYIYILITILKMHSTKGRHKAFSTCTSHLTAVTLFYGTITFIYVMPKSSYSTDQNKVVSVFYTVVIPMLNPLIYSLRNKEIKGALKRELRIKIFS
Source text: as §1, with “For all remaining odorant pairs the Pearson correlation between EC50 vectors and the Euclidean distance between descriptor vectors was calculated.” left out, “subset.” for “subset. The set with the best correlation coefficient then becomes the new set of descriptors and the process is repeated until the correlation coefficient increases by less than 0.004 in three consecutive iterations.”
as §2

[6] = receptor OR2W1, 0 = no response, read-out: log EC50, OR2W1 (converted)
[7] = receptor OR1A1, 0 = no response, read-out: log EC50, OR1A1 (converted)
[8] = receptor MOR203-1, 0 = no response
[9] = receptor MOR272-1, 0 = no response
[10] = receptor MOR41-1, 0 = no response

SMILES: C=CCc1ccccc1 [Allyl benzene]
- log EC50 (Table 4 value), MOR105-1 ([1]; receptor MOR105-1): −3.332
- log EC50 (Table 4 value), MOR106-1 ([1]; receptor MOR106-1): −3.921
- EC50 [2]: 71.4 µM

SMILES: CCC(=O)C(=O)CC [34-Hexanedione]
- EC50 [3]: 16.6 µM
- log EC50 (Table 4 value), MOR41-1 ([1]; receptor MOR41-1): −4.692
- log EC50 (Table 4 value), MOR271-1 [1]: −4.734
- EC50 [2]: 12 µM

SMILES: CCCCCC(C)=O [2-Haptonone]
- EC50 [3, 6]: 7.21 µM
- EC50 [4, 7]: 39.9 µM
- log EC50, MOR203-1 [1, 8]: −4.76
- log EC50, MOR271-1 ([1]; 0 = no response): −4.581
- log EC50, MOR272-1 [1, 9]: −5.073

SMILES: O=C1Cc2ccccc2O1 [2-Counpronon ?]
- log EC50, MOR1-1 ([1]; receptor MOR1-1, 0 = no response): −4.138
- log EC50, MOR41-1 [1, 10]: −3.96
- log EC50, MOR139-1 ([1]; receptor MOR139-1, 0 = no response): −3.585
- log EC50, MOR258-1 ([1]; receptor MOR258-1, 0 = no response): −4.268
- log EC50, MOR259-1 ([1]; receptor MOR259-1, 0 = no response): −3.63
- log EC50, MOR256-17 ([2]; receptor MOR256-17, 0 = no response): −4.575

SMILES: CCCCCCC(C)=O [2-Octanone]
- EC50 [3, 6]: 39.9 µM
- EC50 [4, 7]: 42.7 µM
- log EC50, MOR203-1 [1, 8]: −5.023
- log EC50, MOR272-1 [1, 9]: −4.575

SMILES: O=C(c1ccccc1)c1ccccc1 [Benzophenone]
- EC50 [3]: 28.8 µM
- EC50 [4]: 98.2 µM
- log EC50 (Table 4 value), MOR162-1 ([1]; receptor MOR162-1): −3.685
- log EC50 (Table 4 value), MOR259-1 ([1]; receptor MOR259-1): −4.442
- log EC50 (Table 4 value), MOR269-1 ([1]; receptor MOR269-1): −3.652

SMILES: CCCC(=O)C(C)=O [23-Haxanedione]
- EC50 [3, 6]: 434 µM
- log EC50, MOR41-1 [1, 10]: −5.008
- log EC50, MOR271-1 ([1]; 0 = no response): −4.824
- EC50 ([2]; receptor MOR256-17, 0 = no response, read-out: log EC50, MOR256-17 (converted)): 14.5 µM

SMILES: CCCCCC(=O)CC [3-Octanone]
- EC50 ([3]; receptor OR2W1, read-out: log EC50 (Table 4 value), OR2W1 (converted)): 9.55 µM
- EC50 ([4]; receptor OR1A1, read-out: log EC50 (Table 4 value), OR1A1 (converted)): 5.12 µM
- log EC50 (Table 4 value), MOR203-1 ([1]; receptor MOR203-1): −4.4
- log EC50 (Table 4 value), MOR271-1 [1]: −4.139
- log EC50 (Table 4 value), MOR272-1 ([1]; receptor MOR272-1): −4.197

SMILES: CCCCC(=O)CC [3-Haptonone]
- EC50 [3, 6]: 33.3 µM
- EC50 [4, 7]: 19.4 µM
- log EC50, MOR203-1 [1, 8]: −4.099
- log EC50, MOR271-1 ([1]; 0 = no response): −5.235
- log EC50, MOR272-1 [1, 9]: −5.221

SMILES: CCCCCCCC(C)=O [2-Noranone]
- EC50 [3, 6]: 19.9 µM
- EC50 [4, 7]: 265 µM
- log EC50, MOR203-1 [1, 8]: −5.064

SMILES: CCCCCCO [1-Hexanol]
- EC50 [3, 6]: 14.1 µM
- EC50 [5]: 175 µM
- log EC50, MOR41-1 [1, 10]: −4.064
